Test results from patent US6743618B2, “Thermostable proteolytic enzymes and uses thereof in peptide and protein synthesis” (University of Florida Research Foundation, Inc., priority 1996, dated 2004).
Non-standard residues stand in square brackets, D forms with d. Residues, ends and D or L forms follow the SMILES beside them. *: point of attachment. pNA = O=[N+]([O-])c1ccc(N*)cc1; Cbz = O=C(OCc1ccccc1)*; Bz = O=C(c1ccccc1)*

What was measured:
[1] = biological target: T1, P. furiosus protease (Pyrococcus furiosus, UniProt Q8U3Y3); assay: Hydrolysis kinetics of synthetic peptide and ester substrates (progress curve / initial velocity analysis); format: biochemical; conditions: for Ki: read-out: Ki (product inhibition constant)
Text: (§1) The hydrolysis kinetics of various synthetic peptide and ester protease substrates were studied. Two different methods have been used to analyze the kinetic properties of the enzyme. The first utilized initial velocity data at several substrate concentrations with analysis by plotting s/v νs s (Hanes plot). This method was always used when it was possible that the protease could cleave at more than one site (e.g., PPANA). The second method utilizes all data of the progress curve of the reaction. Progess curves were analyzed in two ways:
(§2) Instantaneous point by point derivatives were calculated from the absorbance νs time data by fitting 10 points spaced 1 second apart by least squares to a second degree polynomial. Derivatives were computed analytically and were used to construct plots of v νs s, which were then analyzed by non-linear regression to obtain Km, kcat and any product inhibition constant (Ki) if it exists. […] For all measurements at elevated temperature, the first-order rate constants for non-enzymic hydrolysis were determined for all substrates. The analytic method described here was used both for reactions at 25.0° C. and 80.0° C.
(§3) For these analyses, the integrated Michaelis-Menten equation was used, but not in linearized form, for reasons relating to product inhibition. Plots of time (now the dependent variable) νs absorbance were constructed from the raw data and analyzed by non-linear regression. […] This method was used for analyses at 25.0° C. only.
(§4) All kinetic studies utilized a Cary 3E double beam spectrophotometer and absorbance νs time data were collected by computer at 1 second intervals. In cases where a peptide substrate could potentially be cleaved at more than one site, thin-layer chromatography was used to establish the products formed (silica gel; butanol:acetone:NH4OH:water—37:37:19:7).
(§5) All of the above are mean values from at least 4 separate experiments. Except for PPANA, values are means of v νs s and integrated rate equation analyses. PPANA values were obtained from initial velocity measurements, analyzed by the Hanes equation. Solvent: 0.025 M Na Phosphate, pH 7.0. […] N. D. means not determined.

[2] = biological target: T1, P. furiosus protease; assay: Activation enthalpy and entropy from Arrhenius plots of initial velocities; format: biochemical
Method: For all kinetic experiments at high temperatures, sodium phosphate (0.025 M) was used as a buffer.
To explore the basis for the extremely large increases in enzyme activity with temperature, initial velocity (vo) measurements were made at 6 different substrate concentrations in order to determine kcat and Km at a series of temperatures in the range of 25.0 to 83.5° C. Temperature was controlled to within ±0.5° C. with a large water bath and jacketed cuvettes. Two substrates were used for these experiments—BAPNA and D-pro-phe-arg-pNA(PPANA).
Within the temperature range accessible to mesophilic enzymes, such plots are linear. […] The data was fitted to a second degree polynomial and the slopes determined as a function of temperature to compute Arrhenius activation energies. These values were used to compute activation enthalpy (ΔH*) and entrophy (ΔS*) as a function of temperature (Eyring, H. (1963) Modern Chemical Kinetics, Rheinhold, N.Y.).

[3] = test system: trypsin; assay: BAPNA hydrolysis by trypsin (comparison); format: biochemical; conditions: BAPNA as substrate, same conditions (25.0 °C)
[4] = biological target: T1, P. furiosus protease; assay: Active site inhibitor studies, BAPNA as substrate; format: biochemical
Text: (§6) To assign the class of protease to which the P. furiosus protease belongs, several reagents were used to identify catalytically important residues.
b. […] This reagent reacts rapidly and specifically with the active site histidine residue of the active site triad: ser-his-asp (Shaw, E. “Site-Specific Reagents for Chymotrypsin and Trypsin.” […]. 11:677-686, 1967).

[5] = test system: Pyrococcus furiosus serine protease, native, about 81 kDa, N-terminus SEQ ID NO: 1; assay: Active site inhibitor studies (BAPNA as substrate); format: biochemical; conditions: 10^−3 M, incubation for 24 hr
Method: as §6
a. Incubation of the enzyme with 10^−3 M EDTA for 24 hr had no effect upon enzyme activity.
b. One of the active-site inhibitors of mesophilic serine proteases is phe-pro-argCH2Cl. This reagent reacts rapidly and specifically with the active site histidine residue of the active site triad: ser-his-asp (Shaw, E. “Site-Specific Reagents for Chymotrypsin and Trypsin.” […]. 11:677-686, 1967).

[6] = test system: Pyrococcus furiosus serine protease (carboxypeptidase/endopeptidase), native, about 81 kDa, N-terminus SEQ ID NO: 1; assay: Kinetic studies and substrate specificity (hydrolysis of synthetic peptide and ester substrates; progress curves, Hanes plot); format: biochemical; conditions: for Km / kcat: 0.025 M Na phosphate, pH 7.0, mean of at least 4 experiments (PPANA: initial velocities, Hanes equation); for product inhibition, Ki compared with Km / hydrolysis by the protease: in words; for hydrolysis by the protease: at up to 80° C. for arg-pNA (TLC), Table 3 lists HA and ZGP at 25.0° C.
Text: as §1, §2
b. Integrated Rate Equation Analyses: t νs Absorbance
as §3
Subroutines for the above analyses were written to analyze the kinetic data for: product competitive inhibition, non-competitive inhibition, 2-product inhibition, and simple Michaelis-Menten kinetics. An HP 9000 series work station was used for this purpose, using HP BASIC.
as §4, §5

[7] = pK values used to calculate theoretical yield; format: physicochemical; conditions: for pK1: carboxyl reactant; for pK2: amine nucleophile
Method: Yield is defined as the ratio of product concentration to the initial concentration of the carboxyl reactant (in percent). Theoretical yield was calculated from equations 1, 2 and 3 together with pK1=3.81 (ZGL) and 4.47 (ZGE); pK2=7.93 (leu-NH2) and 7.51 (arg-NH2).

[8] = biological target: T1, P. furiosus protease; assay: Product inhibition: initial rate measurements of BAPNA with varying product concentrations; format: biochemical
[9] = test system: serine protease of the subject invention; assay: Digestion of insulin B-chain, products by TLC; format: biochemical, Pyrococcus furiosus; conditions: 80° C., phosphate buffer, pH 7.0, 1 hour
Method: Treatment of the insulin B-chain with the serine protease of the subject invention (80° C., phosphate buffer, pH 7.0) for 1 hour yields 5 ninhydrin-positive components by TLC. No non-enzyme hydrolysis of substrate was detected after this time period. One of the new components is alanine which the carboxy terminus of the B-chain. None of the others is a free amino acid. These studies with insulin provide further evidence that the enzyme is an endopeptidase.

[10] = 25.0 °C, 0.025 M Na phosphate, pH 7.0, total progress curve analyses
[11] = 25.0 °C, BAPNA substrate, sodium phosphate 0.025 M pH 7.0, iodoacetamide 100-fold molar excess

T1 sequence (Q8U3Y3 entry or part of it): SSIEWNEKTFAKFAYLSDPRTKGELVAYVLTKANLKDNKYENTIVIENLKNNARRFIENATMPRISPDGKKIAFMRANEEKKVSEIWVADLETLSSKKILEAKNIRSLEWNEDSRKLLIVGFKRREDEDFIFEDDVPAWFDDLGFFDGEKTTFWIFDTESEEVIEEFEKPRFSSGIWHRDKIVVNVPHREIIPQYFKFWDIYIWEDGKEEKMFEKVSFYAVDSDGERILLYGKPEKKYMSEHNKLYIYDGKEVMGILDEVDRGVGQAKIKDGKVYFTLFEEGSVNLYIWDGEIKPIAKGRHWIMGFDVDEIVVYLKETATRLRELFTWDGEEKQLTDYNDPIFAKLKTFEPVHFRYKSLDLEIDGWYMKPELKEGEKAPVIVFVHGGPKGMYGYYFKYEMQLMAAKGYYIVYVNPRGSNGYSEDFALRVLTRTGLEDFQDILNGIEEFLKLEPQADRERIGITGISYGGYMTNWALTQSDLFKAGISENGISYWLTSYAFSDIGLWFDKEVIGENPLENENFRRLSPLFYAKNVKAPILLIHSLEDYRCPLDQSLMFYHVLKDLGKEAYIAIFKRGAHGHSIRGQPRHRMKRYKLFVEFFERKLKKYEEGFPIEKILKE

N=C(N)NCCC[C@H](NC(=O)c1ccccc1)C(=O)Nc1ccc([N+](=O)[O-])cc1 [BAPNA, N-benzoyl-L-arginine-p-nitroanilide]
Ki compared with Km ([1]; 25.0 °C): Ki<Km
Ki times less than Km ([1]; 25.0 °C, Table 3): 10
Ki [1, 10]: 70.8 µM
kcat at 80° C. relative to 25° C. (times greater) ([1]; 80 °C vs 25 °C): 65
Ki ([1]; 80.0 °C, 0.025 M Na phosphate, pH 7.0, progress curve analysis): 220 µM
ΔH* (activation enthalpy) ([2]; 25.0 °C): 17.2 kcal/mol
ΔS* (activation entropy) ([2]; 25.0 °C): 2.2 e.u
ΔH* (activation enthalpy) ([2]; 80.0 °C): 3.1 kcal/mol
ΔS* (activation entropy) ([2]; 80.0 °C): −41.7 e.u
kcat [3]: 2.7 s⁻¹

CCOC(=O)[C@H](Cc1ccc(O)cc1)NC(=O)c1ccccc1 [BTEE, benzoyl-tyrosine ethyl ester]
Ki [1, 10]: 5600 µM

O=C(O)CN(CCN(CC(=O)O)CC(=O)O)CC(=O)O [EDTA]
effect upon enzyme activity [4]: no effect
effect upon enzyme activity [5]: no effect

C[C@H](NC(=O)/C=C/c1ccco1)C(=O)N[C@@H](Cc1ccccc1)C(N)=O [FAAPA, furyl-acryloyl-ala-phe-amide]
Km ([6]; 25.0° C.): 38.6 µM
kcat ([6]; 25.0° C.): 7.31 s⁻¹
product inhibition, Ki compared with Km [6]: Ki<Km

CC(C)C[C@H](NC(=O)CNC(=O)/C=C/c1ccco1)C(N)=O [FAGLA, furyl-acryloyl-glycyl-leucine amide]
Ki compared with Km ([1]; 25.0 °C): Ki<Km
product inhibition ([1]; 25.0 °C): intense product inhibition
Km ([1]; 25.0 °C, 0.025 M Na phosphate, pH 7.0, PPANA from initial velocities (Hanes)): 6.08 µM
kcat ([1]; 25.0 °C, 0.025 M Na phosphate, pH 7.0, means of at least 4 experiments, PPANA from initial velocities (Hanes)): 0.67 s⁻¹

O=C(O)CNC(=O)CNC(=O)[C@H](Cc1ccccc1)NC(=O)/C=C/c1ccco1 [FAPGG, furyl-acryloyl-phe-gly-gly]
Km ([6]; 25.0° C.): 415 µM
kcat ([6]; 25.0° C.): 10.64 s⁻¹
product inhibition, Ki compared with Km [6]: No product inhibition is observed

O=C(/C=C/c1ccco1)N[C@@H](Cc1ccccc1)C(=O)N[C@@H](Cc1ccccc1)C(=O)O [FAPP, furyl-acryloyl-phe-phe]
Km ([6]; 25.0° C.): 375 µM
kcat ([6]; 25.0° C.): 4.58 s⁻¹
product inhibition, Ki compared with Km [6]: product inhibition is not observed

N=C(N)NCCC[C@H](NC(=O)CNC(=O)c1ccccc1)C(=O)O [HA, hippuryl-arginine] (Bz-Gly-Arg-OH)
hydrolysis by the enzyme ([1]; 25.0 °C): Remain Unaltered
hydrolysis by the protease [6]: Remain Unaltered by the Enzyme

O=S(=O)(F)Cc1ccccc1 [PMSF, phenyl-methyl-sulfonyl fluoride]
inhibition of enzyme activity ([4]; 8×10^3 molar excess over enzyme, BAPNA substrate, 25.0 °C): complete inhibition

N=C(N)NCCC[C@H](NC(=O)[C@H](Cc1ccccc1)NC(=O)[C@H]1CCCN1)C(=O)Nc1ccc([N+](=O)[O-])cc1 [PPANA, D-pro-phe-arg-pNA] (H-[dP]-Phe-Arg-pNA)
ΔH* (activation enthalpy) ([2]; 25.0 °C): 26.1 kcal/mol
ΔS* (activation entropy) ([2]; 25.0 °C): 23.8 e.u
ΔH* (activation enthalpy) ([2]; 80.0 °C): 15.4 kcal/mol
ΔS* (activation entropy) ([2]; 80.0 °C): −9.0 e.u
Km ([6]; 25.0° C.): 477 µM
kcat ([6]; 25.0° C.): .045 s⁻¹
Km ([6]; 80.0° C.): 499 µM
kcat ([6]; 80.0° C.): 5.44 s⁻¹
kcat ratio 80° C./25° C. ([6]; kcat at 80° C. vs 25° C.): 120 times

O=C(O)CC[C@H](NC(=O)CNC(=O)OCc1ccccc1)C(=O)O [ZGE, Z-gly-glu] (Cbz-Gly-Glu-OH)
pK1 [7]: 4.47

CC(C)CC(NC(=O)CNC(=O)OCc1ccccc1)C(=O)O (centres unmarked) [ZGL, Z-gly-leu]
pK1 [7]: 3.81

O=C(CNC(=O)OCc1ccccc1)N[C@@H](Cc1ccccc1)C(=O)O [ZGP, carbobenzoxy-gly-phe] (Cbz-Gly-Phe-OH)
hydrolysis by the enzyme ([1]; 25.0 °C): Remain Unaltered
hydrolysis by the protease [6]: Remain Unaltered by the Enzyme

CC(NC(=O)C(Cc1ccccc1)NC(=O)OCc1ccccc1)C(=O)O (centres unmarked) [ZPA, carbobenzoxy-phe-ala]
Ki compared with Km ([1]; 25.0 °C): Ki<Km
Ki [1, 10]: 134 µM

NC(=O)[C@@H](N)CCCN=C(N)N [arg-NH2]
pK2 [7]: 7.51

N=C(N)NCCC[C@H](N)C(=O)Nc1ccc([N+](=O)[O-])cc1 [arg-pNA]
hydrolysis by the protease (TLC) ([1]; even at 80° C.): does not hydrolyze
hydrolysis by the protease [6]: does not hydrolyze arg-pNA at all, even at 80 °C

N=C(N)NCCC[C@H](NC(=O)c1ccccc1)C(=O)O [benzoyl-L-arginine]
Ki [1, 10]: 70.8 µM
Ki ([8]; initial rate measurements of BAPNA with varying product concentration, read-out: Ki (inhibition constant of added product)): 65 µM

O=C(O)c1cc(SSc2ccc([N+](=O)[O-])c(C(=O)O)c2)ccc1[N+](=O)[O-] [bisdithiodintrobenzene]
effect upon the activity of the enzyme [4, 11]: no effect whatsoever

NC(=O)CI [iodoacetamide]
effect upon the activity of the enzyme [4, 11]: no effect whatsoever

CC(C)C[C@H](N)C(N)=O [leu-NH2]
pK2 [7]: 7.93

Nc1ccc([N+](=O)[O-])cc1 [p-nitroaniline]
inhibition by added product ([8]; concentrations as high as 5×10^−4 M, initial rates of BAPNA): no detectable inhibition

N=C(N)NCCC[C@H](NC(=O)[C@@H]1CCCN1C(=O)[C@H](N)Cc1ccccc1)C(=O)CCl [phe-pro-argCH2Cl]
pseudo first order inactivation rate constant ([4]; inhibitor 1.98×10^−6 M, BAPNA 3.8×10^−4 M, 25.0 °C): 0.022 s⁻¹

O=P(O)(O)O [sodium phosphate]
effect upon the activity of the enzyme ([4]; pH 7): no effect whatsoever

insulin B-chain: insulin B-chain, used as a substrate; its carboxy terminus is alanine
ninhydrin-positive components by TLC [9]: 5
